Laboratory results from ChEMBL document CHEMBL3875222, “Benzenesulfonamide bearing imidazothiadiazole and thiazolotriazole scaffolds as potent tumor associated human carbonic anhydrase IX and XII inhibitors” (Bioorg Med Chem, 2017).

Experiments:
Carbonic anhydrase 12 = Carbonic anhydrase 12 (Homo sapiens, UniProt O43570); experiment: Inhibition of recombinant human membrane bound carbonic anhydrase 12 by stopped-flow CO2 hydration assay
Carbonic anhydrase 2 = Carbonic anhydrase 2 (Homo sapiens, UniProt P00918); experiment: Inhibition of recombinant human erythrocyte cytosolic carbonic anhydrase 2 by stopped-flow CO2 hydration assay
Carbonic anhydrase 1 = Carbonic anhydrase 1 (Homo sapiens, UniProt P00915); experiment: Inhibition of recombinant human erythrocyte cytosolic carbonic anhydrase 1 by stopped-flow CO2 hydration assay
Carbonic anhydrase 9 = Carbonic anhydrase 9 (Homo sapiens, UniProt Q16790); experiment: Inhibition of recombinant human membrane bound carbonic anhydrase 9 by stopped-flow CO2 hydration assay

Sequence of Carbonic anhydrase 12 (O43570 whole entry): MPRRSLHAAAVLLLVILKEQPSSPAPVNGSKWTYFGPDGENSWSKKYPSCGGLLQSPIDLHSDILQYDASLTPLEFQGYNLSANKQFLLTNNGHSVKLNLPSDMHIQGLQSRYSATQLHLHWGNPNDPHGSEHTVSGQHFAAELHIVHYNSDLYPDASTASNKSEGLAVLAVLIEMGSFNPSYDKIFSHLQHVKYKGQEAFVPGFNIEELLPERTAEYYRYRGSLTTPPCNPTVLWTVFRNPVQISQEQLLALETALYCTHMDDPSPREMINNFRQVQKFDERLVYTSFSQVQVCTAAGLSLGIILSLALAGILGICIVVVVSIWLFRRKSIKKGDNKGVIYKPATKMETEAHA
Sequence of Carbonic anhydrase 1 (P00915 whole entry): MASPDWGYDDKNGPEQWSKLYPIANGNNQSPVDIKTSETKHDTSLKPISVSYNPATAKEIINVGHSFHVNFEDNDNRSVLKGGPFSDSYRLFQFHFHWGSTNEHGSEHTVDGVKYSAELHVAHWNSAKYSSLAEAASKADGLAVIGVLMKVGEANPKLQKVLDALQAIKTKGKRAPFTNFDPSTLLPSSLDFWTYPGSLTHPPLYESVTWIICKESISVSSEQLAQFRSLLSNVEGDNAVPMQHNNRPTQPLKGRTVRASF

| Structure (SMILES) | Ki (Carbonic anhydrase 12) | Ki (Carbonic anhydrase 2) | Ki (Carbonic anhydrase 1) | Ki (Carbonic anhydrase 9) |
| --- | --- | --- | --- | --- |
| NS(=O)(=O)c1ccc(-c2nn3cc(-c4ccc(Cl)cc4)nc3s2)cc1 | 80.1 nM | 244 nM | 500 nM | 1210 nM |
| NS(=O)(=O)c1ccc(-c2nc3scc(-c4ccccc4)n3n2)cc1 | 147 nM | 18.1 nM | 17.9 nM | 262 nM |
| NS(=O)(=O)c1ccc(-c2nc3scc(-c4ccc(F)cc4)n3n2)cc1 | 359 nM | 301 nM | 662 nM | 237 nM |
| NS(=O)(=O)c1ccc(-c2nc3scc(-c4cccc([N+](=O)[O-])c4)n3n2)cc1 | 362 nM | 13.2 nM | 64.3 nM | 203 nM |
| NS(=O)(=O)c1ccc(-c2nn3cc(-c4cccc(Br)c4)nc3s2)cc1 | 75.6 nM | 67.6 nM | 276 nM | 251 nM |
| NS(=O)(=O)c1ccc(-c2nc3scc(-c4ccc(Br)cc4)n3n2)cc1 | 302 nM | 6350 nM | 9700 nM | 172 nM |
| NS(=O)(=O)c1ccc(-c2nc3scc(-c4ccc(-c5ccccc5)cc4)n3n2)cc1 | 297 nM | 22.3 nM | 97.5 nM | 133 nM |
| NS(=O)(=O)c1ccc(-c2nn3cc(-c4ccc(Br)cc4)nc3s2)cc1 | 84.8 nM | 681 nM | 624 nM | 918 nM |
| NS(=O)(=O)c1ccc(-c2nn3cc(-c4ccc(F)cc4)nc3s2)cc1 | 79.4 nM | 56.2 nM | 218 nM | 136 nM |

Stronger by Ki (Carbonic anhydrase 12), values ahead:

| Ki (Carbonic anhydrase 12) | Ki (Carbonic anhydrase 2) | Ki (Carbonic anhydrase 1) | Ki (Carbonic anhydrase 9) | Structure (SMILES) |
| --- | --- | --- | --- | --- |
| 26.7 nM | 529 nM | 943 nM | 1680 nM | NS(=O)(=O)c1ccc(-c2nc3scc(-c4ccc(Cl)cc4)n3n2)cc1 |
| 3.3 nM | 240 nM | 243 nM | 275 nM | Cc1ccc(-c2cn3nc(-c4ccc(S(N)(=O)=O)cc4)sc3n2)cc1 |
| 35.1 nM | 3860 nM | 9330 nM | 189 nM | NS(=O)(=O)c1ccc(-c2nc3scc(-c4ccc([N+](=O)[O-])cc4)n3n2)cc1 |
| 50.4 nM | 274 nM | 510 nM | 172 nM | NS(=O)(=O)c1ccc(-c2nn3cc(-c4cccc([N+](=O)[O-])c4)nc3s2)cc1 |
| 23.8 nM | 19.5 nM | 79.8 nM | 85.1 nM | Cc1ccc(-c2csc3nc(-c4ccc(S(N)(=O)=O)cc4)nn23)cc1 |
| 48.1 nM | 369 nM | 287 nM | 306 nM | NS(=O)(=O)c1ccc(-c2nn3cc(-c4ccc([N+](=O)[O-])cc4)nc3s2)cc1 |
| 4.1 nM | 7.3 nM | 318 nM | 208 nM | NS(=O)(=O)c1ccc(-c2nn3cc(-c4ccccc4)nc3s2)cc1 |
| 3.8 nM | 830 nM | 849 nM | 2830 nM | COc1ccc(-c2cn3nc(-c4ccc(S(N)(=O)=O)cc4)sc3n2)cc1 |
| 22.3 nM | 15.1 nM | 83.3 nM | 147 nM | COc1ccc(-c2csc3nc(-c4ccc(S(N)(=O)=O)cc4)nn23)cc1 |
| 62.1 nM | 368 nM | 35.5 nM | 143 nM | NS(=O)(=O)c1ccc(-c2nn3cc(-c4ccc(-c5ccccc5)cc4)nc3s2)cc1 |
| 41.4 nM | 2570 nM | 9510 nM | 1090 nM | NS(=O)(=O)c1ccc(-c2nc3scc(-c4cccc(Br)c4)n3n2)cc1 |
